According to ChEMBL document CHEMBL1201861, “Genomics of Drug Sensitity in Cancer screening data, Wellcome Trust Sanger Institute”:

Experiments:
Assay in all cases: cells
Settings in all cases: Homo sapiens
[1] = test system: NCI-H2228; assay type: functional, cell-based;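 also: growth inhibition of human NCI-H2228 cells, read out by a cell viability assay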
Description: SANGER: Inhibition of human NCI-H2228 cell growth in a cell viability assay.

[2] = test system: MeWo; assay type: functional, cell-based;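 also: growth inhibition of MeWo cells, determined by a cell viability readout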
Description: SANGER: Inhibition of human Mewo cell growth in a cell viability assay.

[3] = test system: IGR-1; assay type: functional, cell-based;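 also: growth inhibition of human IGR-1 cells, read out with a cell viability assay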
Description: SANGER: Inhibition of human IGR-1 cell growth in a cell viability assay.

[4] = test system: HT55; assay type: functional, cell-based;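 also: cell viability readout measuring growth inhibition of human HT55 cells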
Description: SANGER: Inhibition of human HT55 cell growth in a cell viability assay.

[5] = test system: DU-145; assay type: functional, cell-based
Description: SANGER: Inhibition of human DU-145 cell growth in a cell viability assay.

[6] = test system: MFE-280; assay type: functional, cell-based;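 also: growth inhibition of MFE-280 cells, determined with a cell viability readout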
Description: SANGER: Inhibition of human MFE-280 cell growth in a cell viability assay.

[7] = test system: MKN-1; assay type: functional, cell-based;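 also: growth inhibition of human MKN1 cells, read out by a cell viability measurement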
Description: SANGER: Inhibition of human MKN1 cell growth in a cell viability assay.

[8] = test system: MCF7; assay type: functional, cell-based;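 also: growth inhibition of human MCF7 cells, read out with a cell viability assay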
Description: SANGER: Inhibition of human MCF7 cell growth in a cell viability assay.

[9] = test system: HT-1080; assay type: functional, cell-based
Description: SANGER: Inhibition of human HT-1080 cell growth in a cell viability assay.

[10] = test system: ACHN; assay type: functional, cell-based;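 also: cell viability read-out used to gauge how strongly growth of human ACHN cells is suppressed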
Description: SANGER: Inhibition of human ACHN cell growth in a cell viability assay.

[11] = test system: HuP-T3; assay type: functional, cell-based;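 also: HuP-T3 cell growth inhibition, read out with a cell viability assay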
Description: SANGER: Inhibition of human HuP-T3 cell growth in a cell viability assay.

[12] = test system: SW1990; assay type: functional, cell-based;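 also: cell growth inhibition determined with a viability assay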
Description: SANGER: Inhibition of human SW1990 cell growth in a cell viability assay.

[13] = test system: SW1417; assay type: functional, cell-based;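 also: growth inhibition of human SW1417 cells, read out with a cell viability assay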
Description: SANGER: Inhibition of human SW1417 cell growth in a cell viability assay.

[14] = test system: NCI-H661; assay type: functional, cell-based;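 also: cell viability assay read-out, IC50 being the concentration that inhibits growth of the cells by half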
Description: SANGER: Inhibition of human NCI-H661 cell growth in a cell viability assay.

[15] = test system: HOP-92; assay type: functional, cell-based;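 also: cell viability readout, with IC50 reflecting inhibition of HOP-92 cell growth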
Description: SANGER: Inhibition of human HOP-92 cell growth in a cell viability assay.

[16] = test system: GCT; assay type: functional, cell-based;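 also: GCT cell line proliferation inhibition, read out with a cell viability assay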
Description: SANGER: Inhibition of human GCT cell growth in a cell viability assay.

[17] = test system: HCC1937; assay type: functional, cell-based;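 also: growth inhibition measured with a cell viability read-out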
Description: SANGER: Inhibition of human HCC1937 cell growth in a cell viability assay.

[18] = test system: D-247MG; assay type: functional, cell-based
Description: SANGER: Inhibition of human D-247MG cell growth in a cell viability assay.

[19] = test system: UACC-62; assay type: functional, cell-based;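 also: growth inhibition of human UACC-62 cells, read out by a cell viability assay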
Description: SANGER: Inhibition of human UACC-62 cell growth in a cell viability assay.

[20] = test system: NCI-H28; assay type: functional, cell-based;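 also: growth inhibition of human NCI-H28 cells, read out as cell viability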
Description: SANGER: Inhibition of human NCI-H28 cell growth in a cell viability assay.

[21] = test system: CP50-MEL-B; assay type: functional, cell-based;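 also: growth inhibition of the human cell line, measured with a cell viability read-out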
Description: SANGER: Inhibition of human CP50-MEL-B cell growth in a cell viability assay.

[22] = test system: GP5d; assay type: functional, cell-based;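 also: growth inhibition of human GP5d cells, read out with a cell viability assay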
Description: SANGER: Inhibition of human GP5d cell growth in a cell viability assay.

[23] = test system: T-24; assay type: functional, cell-based;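 also: growth inhibition of T-24 cells, read out with a cell viability assay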
Description: SANGER: Inhibition of human T-24 cell growth in a cell viability assay.

[24] = test system: BPH-1; assay type: functional, cell-based;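 also: cell viability assay measuring growth inhibition of human BPH-1 cells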
Description: SANGER: Inhibition of human BPH-1 cell growth in a cell viability assay.

[25] = test system: NCI-H2405; assay type: functional, cell-based;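 also: growth inhibition of the human cell line, read out with a cell viability assay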
Description: SANGER: Inhibition of human NCI-H2405 cell growth in a cell viability assay.

[26] = test system: DoTc2-4510; assay type: functional, cell-based
[27] = test system: COLO-678; assay type: functional, cell-based
Description: SANGER: Inhibition of human COLO-678 cell growth in a cell viability assay.

[28] = test system: 647-V; assay type: functional, cell-based;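 also: growth inhibition of 647-V cells, read out with a cell viability assay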
Description: SANGER: Inhibition of human 647-V cell growth in a cell viability assay.

[29] = test system: KYSE-510; assay type: functional, cell-based;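 also: cell viability readout used to measure how strongly growth of the cell line is suppressed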
Description: SANGER: Inhibition of human KYSE-510 cell growth in a cell viability assay.

[30] = test system: BHY; assay type: functional, cell-based;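 also: cell growth inhibition read out by a viability assay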
Description: SANGER: Inhibition of human BHY cell growth in a cell viability assay.

[31] = test system: RVH-421; assay type: functional, cell-based
Description: SANGER: Inhibition of human RVH-421 cell growth in a cell viability assay.

[32] = test system: COLO-741; assay type: functional, cell-based
Description: SANGER: Inhibition of human COLO-741 cell growth in a cell viability assay.

[33] = test system: HCT-116; assay type: functional, cell-based
Description: SANGER: Inhibition of human HCT-116 cell growth in a cell viability assay.

[34] = test system: NCI-H1755; assay type: functional, cell-based;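 also: cell viability readout used to measure growth inhibition of NCI-H1755 cells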
Description: SANGER: Inhibition of human NCI-H1755 cell growth in a cell viability assay.

[35] = test system: SK-MEL-28; assay type: functional, cell-based;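 also: growth inhibition of human SK-MEL-28 cells, read out with a cell viability assay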
Description: SANGER: Inhibition of human SK-MEL-28 cell growth in a cell viability assay.

[36] = test system: A204; assay type: functional, cell-based;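 also: growth inhibition of human A204 cells, read out with a cell viability assay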
Description: SANGER: Inhibition of human A204 cell growth in a cell viability assay.

[37] = test system: SK-LU-1; assay type: functional, cell-based;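 also: cell viability assay measuring growth inhibition of human SK-LU-1 cells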
Description: SANGER: Inhibition of human SK-LU-1 cell growth in a cell viability assay.

[38] = test system: HCC38; assay type: functional, cell-based;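 also: cell viability assay on the human HCC38 cell line, with IC50 marking the concentration that inhibits cell growth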
Description: SANGER: Inhibition of human HCC38 cell growth in a cell viability assay.

[39] = test system: SW1573; assay type: functional, cell-based;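 also: growth inhibition of SW1573 cells, read out with a cell viability assay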
Description: SANGER: Inhibition of human SW1573 cell growth in a cell viability assay.

[40] = test system: UACC-893; assay type: functional, cell-based
Description: SANGER: Inhibition of human UACC-893 cell growth in a cell viability assay.

[41] = test system: NCI-H1573; assay type: functional, cell-based;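 also: growth inhibition of NCI-H1573 cells, read out with a cell viability assay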
Description: SANGER: Inhibition of human NCI-H1573 cell growth in a cell viability assay.

[42] = test system: VM-CUB-1; assay type: functional, cell-based;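 also: cell viability assay measuring growth inhibition of the human VM-CUB-1 cell line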
Description: SANGER: Inhibition of human VM-CUB-1 cell growth in a cell viability assay.

[43] = test system: NCI-H596; assay type: functional, cell-based;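 also: growth inhibition of NCI-H596 cells, read out with a cell viability assay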
Description: SANGER: Inhibition of human NCI-H596 cell growth in a cell viability assay.

[44] = test system: NCI-H460; assay type: functional, cell-based;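 also: cell viability assay scoring growth inhibition of human NCI-H460 cells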
Description: SANGER: Inhibition of human NCI-H460 cell growth in a cell viability assay.

[45] = test system: NCI-H650; assay type: functional, cell-based;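 also: growth inhibition of NCI-H650 cells, read out by a viability assay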
Description: SANGER: Inhibition of human NCI-H650 cell growth in a cell viability assay.

[46] = test system: HOS; assay type: functional, cell-based;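 also: growth inhibition of human HOS cells, read out with a cell viability assay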
Description: SANGER: Inhibition of human HOS cell growth in a cell viability assay.

[47] = test system: MKN-7; assay type: functional, cell-based;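 also: growth inhibition of MKN-7 cells, read out with a cell viability assay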
Description: SANGER: Inhibition of human MKN7 cell growth in a cell viability assay.

[48] = test system: ESS-1; assay type: functional, cell-based;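 also: growth inhibition of human ESS-1 cells, read out by a cell viability assay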
Description: SANGER: Inhibition of human ESS-1 cell growth in a cell viability assay.

[49] = test system: 8305C; assay type: functional, cell-based
Description: SANGER: Inhibition of human 8305C cell growth in a cell viability assay.

[50] = test system: NCI-H1437; assay type: functional, cell-based;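 also: growth inhibition of human NCI-H1437 cells, read out by a cell viability assay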
Description: SANGER: Inhibition of human NCI-H1437 cell growth in a cell viability assay.

[51] = test system: SAOS-2; assay type: functional, cell-based;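 also: growth inhibition of human Saos-2 cells determined by a cell viability assay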
Description: SANGER: Inhibition of human Saos-2 cell growth in a cell viability assay.

[52] = test system: HuCCT-1; assay type: functional, cell-based, HuCCT1;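 also: growth inhibition of HuCCT-1 cells, read out by a cell viability assay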
Description: SANGER: Inhibition of human HuCCT1 cell growth in a cell viability assay.

[53] = test system: OAW-28; assay type: functional, cell-based;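 also: growth inhibition of OAW-28 cells, read out with a cell viability assay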
Description: SANGER: Inhibition of human OAW-28 cell growth in a cell viability assay.

[54] = test system: SF-295; assay type: functional, cell-based;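 also: growth inhibition of SF-295 cells, read out with a cell viability assay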
Description: SANGER: Inhibition of human SF295 cell growth in a cell viability assay.

Which results are given for NC(=O)c1ncn([C@@H]2O[C@H](COP(=O)(O)O)[C@@H](O)[C@H]2O)c1N?
IC50 [1]: 1950 µM; IC50 [2]: > 2000 µM; IC50 [3]: > 2000 µM; IC50 [4]: > 2000 µM; IC50 [5]: > 2000 µM; IC50 [6]: > 2000 µM; IC50 [7]: > 2000 µM; IC50 [8]: 901 µM; IC50 [9]: > 2000 µM; IC50 [10]: 1210 µM; IC50 [11]: 1350 µM; IC50 [12]: 1120 µM; IC50 [13]: > 2000 µM; IC50 [14]: > 2000 µM; IC50 [15]: 1690 µM; IC50 [16]: 1390 µM; IC50 [17]: > 2000 µM; IC50 [18]: > 2000 µM; IC50 [19]: > 2000 µM; IC50 [20]: 1040 µM; IC50 [21]: > 2000 µM; IC50 [22]: 1770 µM; IC50 [23]: > 2000 µM; IC50 [24]: 1560 µM; IC50 [25]: > 2000 µM; IC50 [26]: 1250 µM; IC50 [27]: > 2000 µM; IC50 [28]: > 2000 µM; IC50 [29]: 905 µM; IC50 [30]: 405 µM; IC50 [31]: > 2000 µM; IC50 [32]: > 2000 µM; IC50 [33]: 424 µM; IC50 [34]: 1840 µM; IC50 [35]: > 2000 µM; IC50 [36]: > 2000 µM; IC50 [37]: 1700 µM; IC50 [38]: > 2000 µM; IC50 [39]: > 2000 µM; IC50 [40]: > 2000 µM; IC50 [41]: 353 µM; IC50 [42]: 673 µM; IC50 [43]: > 2000 µM; IC50 [44]: 1360 µM; IC50 [45]: > 2000 µM; IC50 [46]: > 2000 µM; IC50 [47]: > 2000 µM; IC50 [48]: > 2000 µM; IC50 [49]: > 2000 µM; IC50 [50]: 599 µM; IC50 [51]: > 2000 µM; IC50 [52]: 1080 µM

For CC[C@@]1(O)C(=O)OCc2c1cc1n(c2=O)Cc2cc3ccccc3nc2-1 [CAMPTOTHECIN], which IC50 [1] is on record?
Its IC50 is 0.049 µM.

And the IC50 [2]?
The IC50 was 0.047 µM.

What about the IC50 [5] of the same compound?
Its IC50 is greater than 0.1 µM.

And the IC50 [6]?
Its IC50 is 0.0216 µM.

What about the IC50 [7] of the same compound?
The IC50 was 0.0379 µM.

And the IC50 [8]?
The IC50 was 0.00643 µM.

What about the IC50 [9] of the same compound?
The IC50 was 0.000394 µM.

And the IC50 [10]?
Its IC50 is 0.00666 µM.

And the IC50 [11]?
The IC50 was 0.0364 µM.

What about the IC50 [12] of the same compound?
The IC50 was 0.0379 µM.

And the IC50 [13]?
Its IC50 is 0.0527 µM.

What about the IC50 [14] of the same compound?
Its IC50 is 0.0136 µM.

And the IC50 [15]?
The IC50 was 0.00879 µM.

What about the IC50 [16] of the same compound?
The IC50 was 0.00502 µM.

What about the IC50 [18] of the same compound?
The IC50 was 0.0395 µM.

What about the IC50 [53] of the same compound?
The IC50 was 0.00726 µM.

And the IC50 [19]?
Its IC50 is 0.031 µM.

What about the IC50 [20] of the same compound?
Its IC50 is 0.0387 µM.

And the IC50 [21]?
The IC50 was 0.0721 µM.

What about the IC50 [22] of the same compound?
The IC50 was 0.0125 µM.

And the IC50 [23]?
Its IC50 is 0.00161 µM.

What about the IC50 [24] of the same compound?
Its IC50 is 0.00208 µM.

What about the IC50 [25] of the same compound?
The IC50 was 0.0585 µM.

And the IC50 [26]?
The IC50 was 0.00403 µM.

What about the IC50 [27] of the same compound?
Its IC50 is greater than 0.1 µM.

What about the IC50 [28] of the same compound?
The IC50 was 0.000896 µM.

And the IC50 [29]?
The IC50 was 0.00675 µM.

And the IC50 [30]?
Its IC50 is 0.00531 µM.

And the IC50 [54]?
Its IC50 is 0.00791 µM.

What about the IC50 [31] of the same compound?
Its IC50 is 0.0715 µM.

And the IC50 [33]?
Its IC50 is 0.00505 µM.

What about the IC50 [35] of the same compound?
Its IC50 is 0.0171 µM.

And the IC50 [36]?
Its IC50 is 0.00452 µM.

What about the IC50 [37] of the same compound?
The IC50 was 0.00471 µM.

What about the IC50 [38] of the same compound?
Its IC50 is 0.0129 µM.

What about the IC50 [39] of the same compound?
The IC50 was 0.00235 µM.

What about the IC50 [42] of the same compound?
The IC50 was 0.00221 µM.

What about the IC50 [43] of the same compound?
The IC50 was greater than 0.1 µM.

And the IC50 [44]?
Its IC50 is 0.0241 µM.

And the IC50 [45]?
The IC50 was 0.055 µM.

What about the IC50 [46] of the same compound?
The IC50 was 0.0014 µM.

What about the IC50 [48] of the same compound?
The IC50 was 0.00708 µM.

And the IC50 [49]?
Its IC50 is 0.094 µM.

What about the IC50 [50] of the same compound?
Its IC50 is 0.0349 µM.

And the IC50 [51]?
Its IC50 is 0.0178 µM.

What about the IC50 [52] of the same compound?
The IC50 was 0.0732 µM.

Which IC50 [1] does the source give for CC(=O)c1c(C)c2cnc(Nc3ccc(N4CCNCC4)cn3)nc2n(C2CCCC2)c1=O [PALBOCICLIB] here?
The IC50 was greater than 4 µM.

What about the IC50 [2] of the same compound?
The IC50 was 0.937 µM.

What about the IC50 [3] of the same compound?
Its IC50 is greater than 4 µM.

What about the IC50 [4] of the same compound?
The IC50 was greater than 4 µM.

And the IC50 [5]?
The IC50 was 3.46 µM.

What about the IC50 [6] of the same compound?
Its IC50 is greater than 4 µM.

And the IC50 [8]?
Its IC50 is 2.71 µM.

What about the IC50 [9] of the same compound?
Its IC50 is 1.38 µM.

And the IC50 [11]?
Its IC50 is greater than 4 µM.

What about the IC50 [12] of the same compound?
Its IC50 is greater than 4 µM.

And the IC50 [13]?
The IC50 was greater than 4 µM.

And the IC50 [14]?
The IC50 was greater than 4 µM.

And the IC50 [15]?
The IC50 was 3.5 µM.

And the IC50 [16]?
The IC50 was greater than 4 µM.

And the IC50 [17]?
Its IC50 is greater than 4 µM.

And the IC50 [18]?
The IC50 was greater than 4 µM.

And the IC50 [53]?
Its IC50 is greater than 4 µM.

And the IC50 [19]?
The IC50 was greater than 4 µM.

What about the IC50 [20] of the same compound?
The IC50 was greater than 4 µM.

What about the IC50 [21] of the same compound?
Its IC50 is greater than 4 µM.

And the IC50 [22]?
The IC50 was greater than 4 µM.

And the IC50 [23]?
Its IC50 is 0.779 µM.

And the IC50 [24]?
Its IC50 is greater than 4 µM.

And the IC50 [25]?
Its IC50 is greater than 4 µM.

What about the IC50 [26] of the same compound?
Its IC50 is greater than 4 µM.

And the IC50 [27]?
The IC50 was greater than 4 µM.

And the IC50 [28]?
The IC50 was greater than 4 µM.

And the IC50 [29]?
The IC50 was greater than 4 µM.

And the IC50 [30]?
The IC50 was 1.47 µM.

And the IC50 [54]?
The IC50 was greater than 4 µM.

What about the IC50 [31] of the same compound?
Its IC50 is greater than 4 µM.

And the IC50 [32]?
Its IC50 is 1.32 µM.

And the IC50 [33]?
Its IC50 is greater than 4 µM.

And the IC50 [34]?
The IC50 was greater than 4 µM.

What about the IC50 [36] of the same compound?
Its IC50 is 0.634 µM.

And the IC50 [37]?
Its IC50 is 1.62 µM.

And the IC50 [38]?
The IC50 was greater than 4 µM.

What about the IC50 [39] of the same compound?
The IC50 was greater than 4 µM.

What about the IC50 [41] of the same compound?
The IC50 was 2.07 µM.

And the IC50 [42]?
The IC50 was greater than 4 µM.

And the IC50 [43]?
The IC50 was greater than 4 µM.

And the IC50 [44]?
The IC50 was 3.67 µM.

And the IC50 [45]?
The IC50 was greater than 4 µM.

And the IC50 [46]?
The IC50 was 1.35 µM.

What about the IC50 [47] of the same compound?
The IC50 was greater than 4 µM.

And the IC50 [48]?
The IC50 was greater than 4 µM.

And the IC50 [49]?
The IC50 was greater than 4 µM.

What about the IC50 [50] of the same compound?
The IC50 was greater than 4 µM.

What about the IC50 [51] of the same compound?
The IC50 was greater than 4 µM.

And the IC50 [52]?
The IC50 was greater than 4 µM.
